From US20060134048A1, “Reduction of hair growth” (priority 2004, published 2006)

Key:
Human hair follicles = assay: Human hair follicle growth assay; type: cell-based; conditions: 24 hours pre-incubation with 0.1 mM caffeine, then laser 0.75W for 100 msec; hair shaft growth after four to six days
Method: Human Hair Follicle Growth Assay:
Human hair follicles in growth phase (anagen) were isolated from face-lift tissue (obtained from plastic surgeons) under dissecting scope using a scalpel and watchmakers forceps. The skin was sliced into thin strips exposing 2-3 rows of follicles that could readily be dissected. Follicles were placed into 0.5 ml William's E medium (Life Technologies, Gaithersburg, Md.) supplemented with 2 mM L-glutamine, 10 μg/ml insulin, 10 ng/ml hydrocortisone, 100 units of penicillin, 0.1 mg/ml streptomycin and 0.25 μg/ml amphotericin B. The follicles were incubated in 24-well plates (1 follicle/well) at 37° C. in an atmosphere of 5% CO2 and 95% air. The HSP inhibitor or compound that promotes apoptosis is dissolved into dimethyl sulfoxide as 100-fold stock solution. […] The length of hair follicle was assessed using an image analysis software system. The growth of hair fiber was calculated by the subtracting the follicle length on day 0 from that determined on day 7.
Hair follicles were pre-incubated for 24 hours with 0.1 mM concentration of caffeine, and then some of the follicles were laser treated at 0.75W for 100 msec using a Coherent diode laser system. The length of each follicle was measured and the follicles then were placed in a 37° C. incubator for four to six days. Following incubation the hair shaft growth was measured.

hamster flank organs = assay: Golden Syrian Hamster assay; type: in vivo, Golden Syrian hamsters
Method: To evaluate the effectiveness of a composition in reducing hair growth (including when used in conjunction with heating), the flank organs of each of a group of hamsters are depilated by applying a thioglycolate based chemical depilatory (Surgex) and/or shaved. To one organ of each animal 10 μl. of vehicle alone once a day is applied, while to the other organ of each animal an equal amount of vehicle containing the HSP inhibitor or compound that promotes apoptosis under evaluation is applied. After three weeks of topical applications (one application per day for five days a week), with heating at a selected time(s) if the composition is used in conjunction with heating) the flank organs are shaved and the amount of recovered hair (hair mass) from each is weighed. Percent-reduction of hair growth is calculated by subtracting the hair mass (mg) value of the test compound treated side from the hair mass value of the vehicle treated side; the delta value obtained is then divided by the hair mass value of the vehicle treated side, and the resultant number is multiplied by 100. A composition including a vehicle 15% DMSO, 65% ethanol, 10% propylene glycol, and 10% di-propylene glycol and 5% quercetin by weight was tested in the Golden Syrian Hamster assay. […]

| SMILES | reduction in hair growth compared with the control group (Human hair follicles) | hair growth inhibition (hamster flank organs; 5% quercetin for four days prior to 15W/0.75 sec laser, compared to flank organs given the same laser pulse without quercetin pretreatment) [%] | hair growth inhibition (hamster flank organs; 5% quercetin topical only, three weeks, compared to vehicle control flank organs) [%] |
| --- | --- | --- | --- |
| Cn1c(=O)c2c(ncn2C)n(C)c1=O [caffeine] | significant reduction in hair growth | – | – |
| O=c1c(O)c(-c2ccc(O)c(O)c2)oc2cc(O)cc(O)c12 [quercetin] | – | 36 | 15 |
